Reference: paper PMC1888807 (2007)

Tests used:
[1] = system: H24 (DNA, G4) TTAGGGTTAGGGTTAGGGTTAGGG; test: CD melting at 295 nm; conditions: 150 mM Na+; 10 mM Tris-HCl pH 7.5; BMVC:H24 molar ratio 5
[2] = system: H78 (DNA, G4) TTAGGGTTAGGGTTAGGGTTAGGGTTAGGGTTAGGGTTAGGGTTAGGGTTAGGGTTAGGGTTAGGGTTAGGGTTAGGG; test: melting; conditions: 150 mM Na+; 10 mM Tris-HCl pH 7.5; BMVC:H78 molar ratio 10; ~51 to ~68 °C

SMILES: C[n+]1ccc(C=Cc2ccc3[nH]c4ccc(C=Cc5cc[n+](C)cc5)cc4c3c2)cc1
- melting temperature increase [1]: 18 °C
- melting temperature increase [2]: ~ 17 °C
